Experimental data as given in patent US20070208087A1, “Compounds, compositions and methods for the treatment of inflammatory diseases” (priority 2001, published 2007).
“And” between values parts separate entries of the source, which are not always exact repeats. Equal entries are not always repeated. Where two headings read alike, the source gives them in different places.

What was measured:
Type in all cases: cell-based
[1] = system: Microglial cells; experiment: Dose response inhibition of NO release from microglia, 0.75-200 μM (Example 8)
Protocol: This experiment was designed to determine dose response inhibition of NO release from microglia by bis- and tris-dihydroxyaryl compounds when stimulated with LPS/IFNγ. […] This experiment is designed to determine a dose response for various bis- and tris-dihydroxyaryl compounds. Microglial cells were plated into 96 well plates at 1×10^5 cells/ml. […] The doses tested were: 0.75 μM, 1.56 μM, 3.125 μM, 6.25 μM, 12.5 μM, 25 μM, 50 μM, 100 μM and 200 μM. Nitric oxide release was measured after 48 hours using the Griess reaction.

[2] = system: microglia; experiment: Ranking of NO release inhibition (Example 12); conditions: Microglia, ranking table
Description: The bis- and tris-dihydroxyaryl compounds were ranked in order of effectiveness for the inhibition of NO release as set out in Table 8.

[3] = system: Microglial cells; experiment: Dose response inhibition of NO release from microglia, 0.5-500 μM (Example 9); conditions: for μM NO release / μM NO release (No LPS average subtracted): 3 replicates
Protocol: This experiment was designed to determine the dose response inhibition of NO release from microglia by bis- and tris-dihydroxyaryl compounds when stimulated with LPS/IFNγ. Earlier experiments have demonostrated that some bis- and tris-dihydroxyaryl compounds are good inhibitors of NO release from microglia. This experiment is designed to determine a dose response for various effective bis- and tris-dihydroxyaryl compounds. Microglial cells were plated into 96 well plates at 1×10^5 cells/ml. At 48 hours, media was exchanged for media containing 10 ng/ml IFNγ and 10 μg/ml LPS and the following compounds 3, 4, 21, 26 and the positive control L-NAME. The doses tested were: 0.5 μM, 1.0 μM, 5.0 μM, 10 μM, 25 μM, 50 μM, 100 μM, 250 μM, and 500 μM. Nitric oxide release was measured after 48 hours using the Griess reaction.

[4] = system: EOC 13.31 microglia cells; experiment: NO release inhibition in LPS/IFNγ stimulated microglia, concurrent treatment, Griess reaction at 24 hours (Example 6); conditions: for NO release, Avg / inhibition at 50 µM: 24 hours; for inhibition at 50 µM: Microglia
In short: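 Confluent EOC 13.31 microglia were given 50 μM compound together with 1 pg/ml LPS plus 1 ng/ml IFNγ, or without stimulation. NO release was quantified spectrophotometrically by Griess reaction 24 hours later.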

[5] = dose 0.75 μM, 48 hours, single replicates
[6] = dose 1.56 μM, 48 hours, single replicates
[7] = dose 3.125 μM, 48 hours, single replicates
[8] = dose 6.25 μM, 48 hours, single replicates
[9] = dose 12.5 μM, 48 hours, single replicates
[10] = dose 25 μM, 48 hours, single replicates
[11] = dose 50 μM, 48 hours, single replicates
[12] = dose 100 μM, 48 hours, single replicates
[13] = dose 200 μM, 48 hours, single replicates
[14] = dose 0.5 μM, LPS/IFNγ, 48 hours
[15] = dose 100 μM, LPS/IFNγ, 48 hours
[16] = dose 250 μM, LPS/IFNγ, 48 hours
[17] = dose 500 μM, LPS/IFNγ, 48 hours

## O=C(N[C@@H]1CCCC[C@H]1NC(=O)c1ccc(O)c(O)c1)c1ccc(O)c(O)c1 (relative stereo) [Compound 26, N,N′-bis(3,4-dihydroxybenzoyl)-trans-1,2-diaminocyclohexane]
[1]; Microglia, 48 h, dose 0.75 μM
  inhibition at 0.75 µM: -1.78%
[1]; Microglia, 48 h, dose 1.56 μM
  inhibition at 1.56 µM: 6%
[1]; Microglia, 48 h, dose 3.125 μM
  inhibition at 3.125 µM: 5.78%
[1]; Microglia, 48 h, dose 6.25 μM, 48 hours, read-out: Avg % Inhibition
  inhibition at 6.25 µM: 0.428%
[1]; Microglia, 48 h, dose 12.5 μM, 48 hours, read-out: Avg % Inhibition
  inhibition at 12.5 µM: 10.1%
[1]; Microglia, 48 h, dose 12.5 μM, 48 hours, single replicates, read-out: % inhibition
  inhibition at 12.5 µM: 10.1%
[1]; Microglia, 48 h, dose 25 μM, 48 hours, read-out: Avg % Inhibition
  inhibition at 25 µM: 10.1%
[1]; Microglia, 48 h, dose 25 μM, 48 hours, single replicates, read-out: % inhibition
  inhibition at 25 µM: 13.3%
[1]; Microglia, 48 h, dose 50 μM, 48 hours, read-out: Avg % Inhibition
  inhibition at 50 µM: 19.7%
[1]; Microglia, 48 h, dose 50 μM, 48 hours, single replicates, read-out: % inhibition
  inhibition at 50 µM: 19.7%
[1]; Microglia, 48 h, dose 100 μM, 48 hours, read-out: Avg % Inhibition
  inhibition at 100 µM: 23.6%
[1]; Microglia, 48 h, dose 200 μM, 48 hours, read-out: Avg % Inhibition
  inhibition at 200 µM: 44.5%
[1]; Microglia, 48 h, dose 200 μM, 48 hours, single replicates, read-out: % inhibition
  inhibition at 200 µM: 46%
[1]; dose 0.75 μM, 48 hours
  μM NO release Avg: 24.756 µM
[1]; [5]
  % inhibition: 1.07% and −4.91% and −1.50%
  OD values (printed under head μM NO release): 0.21 and 0.206 and 0.215
  μM NO release: 24.688 µM and 24.063 µM and 25.517 µM
[1]; dose 1.56 μM, 48 hours
  μM NO release Avg: 22.865 µM
[1]; [6]
  % inhibition: 9.42% and 2.36% and 6.21%
  OD values (printed under head μM NO release): 0.198 and 0.193 and 0.204
  μM NO release: 22.813 µM and 22.031 µM and 23.750 µM
[1]; dose 3.125 μM, 48 hours
  μM NO release Avg: 22.917 µM
[1]; [7]
  % inhibition: 8.14% and 2.36%
  OD values (printed under head μM NO release): 0.197 and 0.195 and 0.204
  μM NO release: 22.656 µM and 22.344 µM and 23.750 µM
[1]; dose 6.25 μM, 48 hours
  μM NO release Avg: 24.219 µM
[1]; [8]
  % inhibition: 3.64% and −2.14% and −0.21%
  OD values (printed under head μM NO release): 0.208 and 0.202 and 0.211
  μM NO release: 24.375 µM and 23.438 µM and 24.844 µM
[1]; dose 12.5 μM, 48 hours
  μM NO release Avg: 21.875 µM
[1]; [9]
  OD values (printed under head μM NO release): 0.192
  μM NO release: 21.875 µM
[1]; dose 25 μM, 48 hours
  μM NO release Avg: 21.875 µM
[1]; [10]
  OD values (printed under head μM NO release): 0.197 and 0.187 and 0.192
  μM NO release: 22.656 µM and 21.094 µM and 21.875 µM
[1]; dose 50 μM, 48 hours
  μM NO release Avg: 19.531 µM
[1]; [11]
  % inhibition: 18.42% and 20.99%
  OD values (printed under head μM NO release): 0.175 and 0.177 and 0.179
  μM NO release: 19.219 µM and 19.531 µM and 19.844 µM
[1]; dose 100 μM, 48 hours
  μM NO release Avg: 18.594 µM
[1]; [12]
  % inhibition: 17.13% and 19.06% and 34.48%
  OD values (printed under head μM NO release): 0.154 and 0.181 and 0.178
  μM NO release: 15.938 µM and 20.156 µM and 19.688 µM
[1]; dose 200 μM, 48 hours
  μM NO release Avg: 13.490 µM
[1]; [13]
  % inhibition: 40.26% and 47.32%
  OD values (printed under head μM NO release): 0.134 and 0.136 and 0.145
  μM NO release: 12.813 µM and 13.125 µM and 14.531 µM
[2]
  inhibition at 50 µM: 20%
[3]; Microglia, 48 h, dose 0.5 μM, NO release, LPS/IFNγ, 48 hours, read-out: Avg % Inhibition
  inhibition at 0.5 µM: -4.06%
[3]; Microglia, 48 h, dose 1 μM, NO release, LPS/IFNγ, 48 hours, read-out: Avg % Inhibition
  inhibition at 1 µM: 0.51%
[3]; Microglia, 48 h, dose 5 μM, NO release, LPS/IFNγ
  inhibition at 5 µM: -4.31%
[3]; Microglia, 48 h, dose 10 μM, NO release, LPS/IFNγ
  inhibition at 10 µM: -1.01%
[3]; Microglia, 48 h, dose 25 μM, NO release, LPS/IFNγ
  inhibition at 25 µM: 6.85%
[3]; Microglia, 48 h, dose 50 μM, NO release, LPS/IFNγ
  inhibition at 50 µM: 6.59%
[3]; Microglia, 48 h, dose 100 μM, NO release, LPS/IFNγ, 48 hours, read-out: Avg % Inhibition
  inhibition at 100 µM: 16.2%
[3]; Microglia, 48 h, dose 100 μM, individual replicates, NO release, LPS/IFNγ, 48 hours, read-out: % inhibition
  inhibition at 100 µM: 17.2%
[3]; Microglia, 48 h, dose 250 μM, NO release, LPS/IFNγ, 48 hours, read-out: Avg % Inhibition
  inhibition at 250 µM: 35.2%
[3]; Microglia, 48 h, dose 250 μM, individual replicates, NO release, LPS/IFNγ, 48 hours, read-out: % inhibition
  inhibition at 250 µM: 36.3%
[3]; Microglia, 48 h, dose 500 μM, NO release, LPS/IFNγ, 48 hours, read-out: Avg % Inhibition
  inhibition at 500 µM: 99.5%
[3]; Microglia, 48 h, dose 500 μM, individual replicates, NO release, LPS/IFNγ, 48 hours, read-out: % inhibition
  inhibition at 500 µM: 98.4%
[3]; Microglia, 48 h, highest concentration tested (500 μM), 48 hours, read-out: inhibited NO release by
  inhibition at 500 µM: 99%
[3]; [14]
  μM NO release: 21.667 µM and 19.306 µM and 21.111 µM
  μM NO release (No LPS average subtracted): 19.97 µM and 17.61 µM and 19.41 µM
[3]; dose 0.5 μM, individual replicates, NO release, LPS/IFNγ, 48 hours
  % inhibition: −9.38% and 3.55% and −6.34%
[3]; dose 1 μM, LPS/IFNγ, 48 hours
  μM NO release: 19.722 µM and 19.028 µM and 20.833 µM
  μM NO release (No LPS average subtracted): 18.02 µM and 17.33 µM and 19.13 µM
[3]; dose 1 μM, individual replicates, NO release, LPS/IFNγ, 48 hours
  % inhibition: 1.27% and 5.07% and −4.82%
[3]; dose 5 μM, LPS/IFNγ, 48 hours
  μM NO release: 20.000 µM and 21.528 µM and 20.694 µM
  μM NO release (No LPS average subtracted): 18.30 µM and 19.83 µM and 18.99 µM
[3]; dose 5 μM, individual replicates, NO release, LPS/IFNγ, 48 hours
  % inhibition: −0.25% and −8.62%
[3]; dose 10 μM, LPS/IFNγ, 48 hours
  μM NO release: 20.139 µM and 19.583 µM and 20.694 µM
  μM NO release (No LPS average subtracted): 18.44 µM and 17.88 µM and 18.99 µM
[3]; dose 10 μM, individual replicates, NO release, LPS/IFNγ, 48 hours
  % inhibition: 2.03%
[3]; dose 25 μM, LPS/IFNγ, 48 hours
  μM NO release: 18.194 µM and 18.333 µM and 19.583 µM
  μM NO release (No LPS average subtracted): 16.49 µM and 16.63 µM and 17.88 µM
[3]; dose 25 μM, individual replicates, NO release, LPS/IFNγ, 48 hours
  % inhibition: 9.64% and 8.88% and 2.03%
[3]; dose 50 μM, LPS/IFNγ, 48 hours
  μM NO release: 18.333 μM (2×) and 19.583 μM
  μM NO release (No LPS average subtracted): 16.63 μM (2×) and 17.88 μM
[3]; dose 50 μM, individual replicates, NO release, LPS/IFNγ, 48 hours
  % inhibition: 8.88% (2×) and 2.03%
[3]; [15]
  μM NO release: 16.806 μM (2×) and 17.361 μM
  μM NO release (No LPS average subtracted): 15.11 μM (2×) and 15.66 μM
[3]; dose 100 μM, individual replicates, NO release, LPS/IFNγ, 48 hours
  % inhibition: 14.20%
[3]; [16]
  μM NO release: 13.333 µM and 13.194 µM and 14.028 µM
  μM NO release (No LPS average subtracted): 11.63 µM and 11.49 µM and 12.33 µM
[3]; dose 250 μM, individual replicates, NO release, LPS/IFNγ, 48 hours
  % inhibition: 37.03% and 32.46%
[3]; [17]
  μM NO release: 2.000 µM and 1.500 µM and 1.867 µM
  μM NO release (No LPS average subtracted): 0.30 µM and -0.20 µM and 0.17 µM
[3]; dose 500 μM, individual replicates, NO release, LPS/IFNγ, 48 hours
  % inhibition: 101.10% and 99.09%
[4]; 50 μM, LPS/IFNγ stimulated microglial cells
  inhibition of NO release, in words: very effective inhibitors of NO release
[4]; Compound + LPS/IFNγ, 50 μM
  NO release, Avg: 14.8384 µM
[4]; Compound Only (without LPS/IFNγ), 50 μM
  NO release, Avg: 0.0000 µM
[4]; Compound + LPS/IFNγ, read-out: % inhibition of NO release
  inhibition at 50 µM: 20.3%
[4]; Table 2 summary, LPS/IFNγ, read-out: % Inhibition (summary of inhibition of NO release)
  inhibition at 50 µM: 20.3%
